The target of the test is T1, human recombinant P2X7 receptors (Homo sapiens, UniProt Q99572).
T1 construct: expressed in transfected cells
T1 sequence (Q99572 1-595): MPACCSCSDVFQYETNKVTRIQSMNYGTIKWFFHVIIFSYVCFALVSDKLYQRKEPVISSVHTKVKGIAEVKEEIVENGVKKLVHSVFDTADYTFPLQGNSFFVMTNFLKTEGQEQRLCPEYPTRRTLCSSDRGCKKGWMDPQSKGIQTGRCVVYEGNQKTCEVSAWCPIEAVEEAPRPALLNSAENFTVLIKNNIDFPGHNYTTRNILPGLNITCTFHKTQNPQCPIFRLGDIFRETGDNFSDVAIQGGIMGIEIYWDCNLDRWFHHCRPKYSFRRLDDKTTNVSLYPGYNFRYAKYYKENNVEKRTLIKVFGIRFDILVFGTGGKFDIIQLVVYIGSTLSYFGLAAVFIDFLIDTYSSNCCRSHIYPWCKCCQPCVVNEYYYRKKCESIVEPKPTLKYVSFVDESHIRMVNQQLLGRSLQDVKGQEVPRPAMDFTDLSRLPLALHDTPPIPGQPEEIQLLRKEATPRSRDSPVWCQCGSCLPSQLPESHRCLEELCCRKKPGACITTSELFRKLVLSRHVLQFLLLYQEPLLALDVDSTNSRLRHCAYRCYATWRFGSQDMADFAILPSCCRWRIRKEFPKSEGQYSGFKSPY
Put plainly: Ethidium Accumulation Assay 1 (HEK293 cells, ATP-induced ethidium uptake). In kind it is cell-based. The note with it: HEK293 cells expressing human P2X7; 1 mM ATP; sometimes mean of more than one measurement; read-out: Assay 1 (antagonist pIC50 for blocking ATP responses) (converted). Here is the method:
Eithidium Accumulation Assay 1
Studies were performed using NaCl assay buffer of the following composition: 140 mM NaCl, 10 mM HEPES [4-(2-hydroxyethyl)-1-piperazine-1-ethanesulfonic acid], 5 mM N-methyl-D-glucamine, 5.6 mM KCl, 10 mM D-glucose, 0.5 mM CaCl2 (pH 7.4).
Human Embryonic Kidney (HEK) 293 cells, stably expressing human recombinant P2X7 receptors, were grown in poly-D-lysine pretreated 96 well plates for 18-24 hours.
The cells were washed twice with 350 μl of the assay buffer, before addition of 50 μl of the assay buffer containing the putative P2X7 receptor antagonist compound. (A small amount of dimethyl sulfoxide, for initially dissolving the compound, is optionally used and present in this 50 μl test compound sample.) The cells were then incubated at room temperature (19-21° C.) for 30 min before addition of ATP and ethidium (100 μM final assay concentration). The ATP concentration was chosen to be close to the EC80 for the receptor type and was 1 mM for studies on the human P2X7 receptor. Incubations were continued for 8 or 16 min and were terminated by addition of 25 μl of 1.3M sucrose containing 4 mM of the P2X7 receptor antagonist Reactive Black 5 (Aldrich). […] Antagonist pIC50 values for blocking ATP responses were determined using iterative curve fitting techniques.

The record followed here is patent US8501946B2 (Glaxo Group Limited, priority 2009, dated 2013).

As for `Cc1cc(-c2nnc3n2CCN(C(=O)c2cccc(Cl)c2Cl)C3)no1` [Example 49, 7-[(2,3-dichlorophenyl)carbonyl]-3-(5-methyl-3-isoxazolyl)-5,6,7,8-tetrahydro[1,2,4]triazolo [4,3-a]pyrazine], the IC50 is below 100 nM.

For the molecule `Cn1ccc(-c2nnc3n2CCN(C(=O)c2cccc(C(F)(F)F)c2Cl)C3)n1` [Example 27, 7-{[2-chloro-3-(trifluoromethyl)phenyl]carbonyl}-3-(1-methyl-1H-pyrazol-3-yl)-5,6,7,8-tetrahydro[1,2,4]triazolo [4,3-a]pyrazine], the IC50 was below 10 nM. The result for `O=C(c1c(F)cccc1Cl)N1CCn2c(nnc2-c2ccccn2)C1` [Example 79, 7-[(2-chloro-6-fluorophenyl)carbonyl]-3-(2-pyridinyl)-5,6,7,8-tetrahydro[1,2,4]triazolo [4,3-a]pyrazine] reads below 501 nM; that for `O=C(c1cccc(Cl)c1Cl)N1CCn2c(Br)nnc2C1` [Example 6, 3-bromo-7-[(2,3-dichlorophenyl)carbonyl]-5,6,7,8-tetrahydro[1,2,4]triazolo [4,3-a]pyrazine], below 100 nM.

`O=C(c1cccc(Cl)c1Cl)N1CCn2c(nnc2-c2cccnn2)C1` [Example 57, 7-[(2,3-dichlorophenyl)carbonyl]-3-(3-pyridazinyl)-5,6,7,8-tetrahydro[1,2,4]triazolo [4,3-a]pyrazine]: the IC50 is below 100 nM.

With `O=C(c1ccc(F)cc1Cl)N1CCn2c(nnc2-c2ccc(F)c(F)c2)C1` [Example 124, 7-[(2-chloro-4-fluorophenyl)carbonyl]-3-(3,4-difluorophenyl)-5,6,7,8-tetrahydro[1,2,4]triazolo[4,3-a]pyrazine], the IC50 was below 100 nM. The result for `O=C(c1ccc(F)c(C(F)(F)F)c1)N1CCn2c(nnc2-c2cnccn2)C1` [Example 108, 7-{[4-fluoro-3-(trifluoromethyl)phenyl]carbonyl}-3-(2-pyrazinyl)-5,6,7,8-tetrahydro[1,2,4]triazolo [4,3-a]pyrazine] reads below 100 nM; that for `Cn1nccc1-c1nnc2n1CCN(C(=O)c1cccc(Cl)c1Cl)C2` [Example 81, 7-[(2,3-dichlorophenyl)carbonyl]-3-(1-methyl-1H-pyrazol-5-yl)-5,6,7,8-tetrahydro[1,2,4]triazolo [4,3-]pyrazine], below 100 nM; that for `O=C(c1ccccc1Cl)N1CCn2c(nnc2-c2ccco2)C1` [Example 117, 7-[(2-chlorophenyl)carbonyl]-3-(2-furanyl)-5,6,7,8-tetrahydro[1,2,4]triazolo[4,3-a]pyrazine], below 10 nM.

Regarding `Cc1ccc(-c2nnc3n2CCN(C(=O)c2cccc(C(F)(F)F)c2Cl)C3)nc1` [Example 51, 7-{[2-chloro-3-(trifluoromethyl)phenyl]carbonyl}-3-(5-methyl-2-pyridinyl)-5,6,7,8-tetrahydro[1,2,4]triazolo [4,3-a]pyrazine], the IC50 is below 100 nM. Regarding `O=C(c1ccc(F)cc1Cl)N1CCn2c(nnc2-c2ccc(F)cn2)C1` [Example 40, 7-[(2-chloro-4-fluorophenyl)carbonyl]-3-(5-fluoro-2-pyridinyl)-5,6,7,8-tetrahydro[1,2,4]triazolo [4,3-a]pyrazine], the IC50 is below 100 nM. `O=C(c1cccc(C(F)(F)F)c1Cl)N1CCn2c(nnc2N2CCCC2)C1` [Example 19, 7-{[2-chloro-3-(trifluoromethyl)phenyl]carbonyl}-3-(1-pyrrolidinyl)-5,6,7,8-tetrahydro[1,2,4]triazolo [4,3-a]pyrazine]: the IC50 is below 100 nM. The result for `O=C(c1ccc(Cl)cc1Cl)N1CCn2c(Br)nnc2C1` [Example 7, 3-bromo-7-[(2,4-dichlorophenyl)carbonyl]-5,6,7,8-tetrahydro[1,2,4]triazolo [4,3-a]pyrazine] reads below 501 nM; that for `O=C(c1ccc(Cl)cc1Cl)N1CCn2c(nnc2-c2ccc(F)cc2F)C1` [Example 101, 7-[(2,4-dichlorophenyl)carbonyl]-3-(2,4-difluorophenyl)-5,6,7,8-tetrahydro[1,2,4]triazolo [4,3-a]pyrazine], below 100 nM; that for `O=C(c1cccc(Cl)c1)N1CCn2c(nnc2-c2ccccn2)C1` [Example 80, 7-[(3-chlorophenyl)carbonyl]-3-(2-pyridinyl)-5,6,7,8-tetrahydro[1,2,4]triazolo [4,3-a]pyrazine], below 100 nM.

Take `O=C(c1cccc(C(F)(F)F)c1Cl)N1CCn2c(nnc2C2CCCCC2)C1` [Example 135, 7-{[2-chloro-3-(trifluoromethyl)phenyl]carbonyl}-3-cyclohexyl-5,6,7,8-tetrahydro[1,2,4]triazolo[4,3-a]pyrazine]: the IC50 is below 100 nM. For `O=C(c1cccc(C(F)(F)F)c1F)N1CCn2c(Br)nnc2C1` [Example 9, 3-bromo-7-{[2-fluoro-3-(trifluoromethyl)phenyl]carbonyl}-5,6,7,8-tetrahydro[1,2,4]triazolo [4,3-a]pyrazine] the value was below 100 nM; for `Cc1ncccc1-c1nnc2n1CCN(C(=O)c1ccc(F)cc1Cl)C2` [Example 74, 7-[(2-chloro-4-fluorophenyl)carbonyl]-3-(2-methyl-3-pyridinyl)-5,6,7,8-tetrahydro[1,2,4]triazolo [4,3-a]pyrazine], below 501 nM; for `O=C(c1ccc(F)cc1Cl)N1CCn2c(nnc2-c2cccnc2)C1` [Example 39, 7-[(2-chloro-4-fluorophenyl)carbonyl]-3-(3-pyridinyl)-5,6,7,8-tetrahydro[1,2,4]triazolo [4,3-a]pyrazine], below 100 nM.

Regarding `CCc1nnc2n1CCN(C(=O)c1cccc(Cl)c1Cl)C2` [Example 5, 7-[(2,3-dichlorophenyl)carbonyl]-3-ethyl-5,6,7,8-tetrahydro[1,2,4]triazolo [4,3-a]pyrazine], the IC50 is below 100 nM. The result for `COc1cccc(-c2nnc3n2CCN(C(=O)c2ccc(F)cc2Cl)C3)c1` [Example 125, 7-[(2-chloro-4-fluorophenyl)carbonyl]-3-[3-(methyloxy)phenyl]-5,6,7,8-tetrahydro[1,2,4]triazolo[4,3-a]pyrazine] reads below 100 nM.

As for `O=C(c1cccc(Cl)c1Cl)N1CCn2c(nnc2-c2cscn2)C1` [Example 67, 7-[(2,3-dichlorophenyl)carbonyl]-3-(1,3-thiazol-4-yl)-5,6,7,8-tetrahydro[1,2,4]triazolo[4,3-a]pyrazine], the IC50 was below 10 nM. For `O=C(c1cccc(C(F)(F)F)c1Cl)N1CCn2c(nnc2-c2ccc(F)cc2F)C1` [Example 24, 7-{[2-Chloro-3-(trifluoromethyl)phenyl]carbonyl}-3-(2,4-difluorophenyl)-5,6,7,8-tetrahydro[1,2,4]triazolo[4,3-a]pyrazine] the value was below 100 nM. For `O=C(c1ccc(Cl)c(F)c1Cl)N1CCn2c(nnc2-c2ccncn2)C1` [Example 112, 7-[(2,4-Dichloro-3-fluorophenyl)carbonyl]-3-(4-pyrimidinyl)-5,6,7,8-tetrahydro[1,2,4]triazolo[4,3-a]pyrazine] the value was below 100 nM. The result for `O=C(c1ccc(Cl)c(Cl)c1)N1CCn2c(nnc2-c2cnccn2)C1` [Example 115, 7-[(3,4-dichlorophenyl)carbonyl]-3-(2-pyrazinyl)-5,6,7,8-tetrahydro[1,2,4]triazolo[4,3-a]pyrazine] reads below 100 nM. In the case of `O=C(c1ccc(F)cc1Cl)N1CCn2c(nnc2-c2cccnn2)C1` [Example 59, 7-[(2-chloro-4-fluorophenyl)carbonyl]-3-(3-pyridazinyl)-5,6,7,8-tetrahydro[1,2,]triazolo [4,3-a]pyrazine], the IC50 is below 501 nM.

Turning to `O=C(c1cccc(C(F)(F)F)c1Cl)N1CCn2c(nnc2-c2ccco2)C1` [Example 77, 7-{[2-chloro-3-(trifluoromethyl)phenyl]carbonyl}-3-(2-furanyl)-5,6,7,8-tetrahydro[1,2,4]triazolo[4,3-a]pyrazine], the IC50 was below 10 nM.

On to `O=C(c1cccc(Cl)c1Cl)N1CCn2c(nnc2-c2ccc(F)cc2F)C1` [Example 98], for which the IC50 was below 100 nM. With `O=C(c1ccc(Cl)cc1Cl)N1CCn2c(nnc2-c2ccc(F)cn2)C1` [Example 95, 7-[(2,4-dichlorophenyl)carbonyl]-3-(5-fluoro-2-pyridinyl)-5,6,7,8-tetrahydro[1,2,4]triazolo [4,3-a]pyrazine], the IC50 is below 100 nM.
